US20240150423A1, “GLP-1 ANALOGUE-MODIFIED DIMERS WITH DIFFERENT CONFIGURATIONS, PREPARATION METHOD THEREOF, AND APPLICATION THEREOF IN TREATMENT OF TYPE II DIABETES” (Nanjing Finepeptide Biopharmaceutical Co.,Ltd, priority 2019, published 2024)

Assay: T2D model treatment: body weight and organ weights
Assay type: in vivo, C57B16/J mice
Conditions: 2G1 study, 35 days
Description: C57B16/J mice were placed in an SPF-level environment with a standard diet. All experimental operations were performed in accordance with the guidelines of the ethics and uses of experimental animals. […] The NaCl-PB group served as blank control and the model control group served as the T2D model control. They were injected with NaCl-PB solution. The T2D model group was fed with 60 kcal % high-fat diet (D12492, Changzhou SYSE Bio-tech. Co., Ltd., China) until the end of the experiment. Meanwhile the blank control group maintained standard diet. […] These groups were subjected to a 35-day treatment study on the basis of the high-fat diet. • 1. […] The monomeric peptides were dissolved into a saline solution (pH 6.5) for injection. • 2. […] The models were measured blood glucose at the tail and weight weighted every morning at 9 am. […] In the T2D treatment study, all T2D model mice were injected subcutaneously at the back hip in 100 μl per mouse within 30 min. The blood glucose of the experimental mice was measured every five days and the whole measurement was completed within 40 min. […] No. 8-9695-03-201-1, Novo Nordisk company, Switzerland) until the end of the 35-day experiment. • 3.

[1] = high dose 3.378 nmol/100 μL once a day
[2] = low dose 0.375 nmol/100 μL once a day
[3] = medium dose and Liraglutide group 1.126 nmol/100 μL once a day

Structure (SMILES): CCCCCCCCCCCCCCCC(=O)N[C@@H](CCC(=O)NCCCC[C@H](NC(=O)[C@H](C)NC(=O)[C@H](C)NC(=O)[C@H](CCC(N)=O)NC(=O)CNC(=O)[C@H](CCC(=O)O)NC(=O)[C@H](CC(C)C)NC(=O)[C@H](Cc1ccc(O)cc1)NC(=O)[C@H](CO)NC(=O)[C@H](CO)NC(=O)[C@@H](NC(=O)[C@H](CC(=O)O)NC(=O)[C@H](CO)NC(=O)[C@@H](NC(=O)[C@H](Cc1ccccc1)NC(=O)[C@@H](NC(=O)CNC(=O)[C@H](CCC(=O)O)NC(=O)[C@H](C)NC(=O)[C@@H](N)Cc1c[nH]cn1)[C@@H](C)O)[C@@H](C)O)C(C)C)C(=O)N[C@@H](CCC(=O)O)C(=O)N[C@@H](Cc1ccccc1)C(=O)N[C@H](C(=O)N[C@@H](C)C(=O)N[C@@H](Cc1c[nH]c2ccccc12)C(=O)N[C@@H](CC(C)C)C(=O)N[C@H](C(=O)N[C@@H](CCCNC(=N)N)C(=O)NCC(=O)N[C@@H](CCCNC(=N)N)C(=O)NCC(=O)N[C@@H](CSSC[C@H](NC(=O)CNC(=O)[C@H](CCCNC(=N)N)NC(=O)CNC(=O)[C@H](CCCNC(=N)N)NC(=O)[C@@H](NC(=O)[C@H](CC(C)C)NC(=O)[C@H](Cc1c[nH]c2ccccc12)NC(=O)[C@H](C)NC(=O)[C@@H](NC(=O)[C@H](Cc1ccccc1)NC(=O)[C@H](CCC(=O)O)NC(=O)[C@H](CCCCNC(=O)CC[C@H](NC(=O)CCCCCCCCCCCCCCC)C(=O)O)NC(=O)[C@H](C)NC(=O)[C@H](C)NC(=O)[C@H](CCC(N)=O)NC(=O)CNC(=O)[C@H](CCC(=O)O)NC(=O)[C@H](CC(C)C)NC(=O)[C@H](Cc1ccc(O)cc1)NC(=O)[C@H](CO)NC(=O)[C@H](CO)NC(=O)[C@@H](NC(=O)[C@H](CC(=O)O)NC(=O)[C@H](CO)NC(=O)[C@@H](NC(=O)[C@H](Cc1ccccc1)NC(=O)[C@@H](NC(=O)CNC(=O)[C@H](CCC(=O)O)NC(=O)[C@H](C)NC(=O)[C@@H](N)Cc1c[nH]cn1)[C@@H](C)O)[C@@H](C)O)C(C)C)[C@@H](C)CC)C(C)C)C(=O)O)C(=O)O)C(C)C)[C@@H](C)CC)C(=O)O [2G1]
- Weight of organs, Heart [1]: 0.121 ± 0.011a** g
- Weight of organs, Left kidney [1]: 0.166 ± 0.040 g
- Weight of organs, Left testis [1]: 0.086 ± 0.017 e* g
- Weight of organs, Liver [1]: 1.293 ± 0.273 c* g
- Weight of organs, Lung [1]: 0.144 ± 0.019 g
- Weight of organs, Pancreas [1]: 0.145 ± 0.032 c* g
- Weight of organs, Right kidney [1]: 0.175 ± 0.063 g
- Weight of organs, Right testis [1]: 0.096 ± 0.011 g
- Weight of organs, Spleen [1]: 0.095 ± 0.028 c* g
- Weight of organs, adipose tissue [1]: 1.311 ± 0.629 c* g
- Weight of organs, Heart [2]: 0.128 ± 0.023 g
- Weight of organs, Left kidney [2]: 0.156 ± 0.021 g
- Weight of organs, Left testis [2]: 0.094 ± 0.037 g
- Weight of organs, Liver [2]: 1.290 ± 0.163 a*c** g
- Weight of organs, Lung [2]: 0.146 ± 0.010 g
- Weight of organs, Pancreas [2]: 0.129 ± 0.2a**c*** g
- Weight of organs, Right kidney [2]: 0.147 ± 0.018 g
- Weight of organs, Right testis [2]: 0.100 ± 0.021 b* g
- Weight of organs, Spleen [2]: 0.107 ± 0.037 c* g
- Weight of organs, adipose tissue [2]: 1.202 ± 0.406 c** g
- Weight of organs, Heart [3]: 0.114 ± 0.010 a** g
- Weight of organs, Left kidney [3]: 0.157 ± 0.030 g
- Weight of organs, Left testis [3]: 0.100 ± 0.006 b** g
- Weight of organs, Liver [3]: 1.211 ± 0.114 c** g
- Weight of organs, Lung [3]: 0.139 ± 0.020 g
- Weight of organs, Pancreas [3]: 0.155 ± 0.033 c*d* g
- Weight of organs, Right kidney [3]: 0.139 ± 0.029 g
- Weight of organs, Right testis [3]: 0.095 ± 0.011 g
- Weight of organs, Spleen [3]: 0.101 ± 0.026 c* g
- Weight of organs, adipose tissue [3]: 1.263 ± 0.276 c*** g
